Broadly, the EC50 is the concentration that produces a half-maximal response. A higher EC50 goes with a less potent agent.

In test [1] the target is human CYP11B1 (Homo sapiens (Human), UniProt P15538). Briefly: G-402 cellular enzyme assay, human CYP11B1 (cortisol release). The note with it: G-402 cells, 1 μM Deoxycortisol. It is filed as cell-based. The source says: (§1) Herein we identified the use of the G-402 cell line as a host cell to ectopically express (transiently or stably) enzymes of the CYP11 family. Specifically we developed stable G-402 cells expressing ectopically human CYP11B1, human CYP11B2, human CYP11A1, cynmolgus CYP11B1 or cynomolgus CYP11B2 enzyme activity. Importantly the identified cell line G-402 expresses co-factors (adrenodoxin and adrenodoxin reductase) important for the activity of the CYP11 family and no relevant enzyme activity of the CYP11 family (in comparison to H295R cells) was detected in these cells. Therefore the G-402 cell line is uniquely suited as a host cell for the ectopic expression of enzymes from the CYP11 family. G-402 cells can be obtained from ATCC (CRL-1440) and were originally derived from a renal leiomyoblastoma.
(§2) The expression plasmids contains the ORF for either human/cyno CYP11B1 or CYP11B2 under the control of a suitable promoter (CMV-promoter) and a suitable resistance marker (neomycin). Using standard techniques the expression plasmid is transfected into G-402 cells and these cells are then selected for expressing the given resistance markers. Individual cell-clones are then selected and assessed for displaying the desired enzymatic activity using 11-Deoxycorticosterone (Cyp11B2) or 11-Deoxycortisol (Cyp11B1) as a substrate.
(§3) G-402 cells expressing CYP11 constructs were established as described above and maintained in McCoy's 5a Medium Modified, ATCC Catalog No. 30-2007 containing 10% FCS and 400 μg/ml G418 (Geneticin) at 37° C. under an atmosphere of 5% CO2/95% air. Cellular enzyme assays were performed in DMEM/F12 medium containing 2.5% charcoal treated FCS and appropriate concentration of substrate (0.3-10 uM 11-Deoxycorticosterone, 11-Deoxycortisol or Corticosterone). For assaying enzymatic activity, cells were plated onto 96 well plates and incubated for 16 h. An aliquot of the supernatant is then transferred and analyzed for the concentration of the expected product (Aldosterone for CYP11B2; Cortisol for CYP11B1). The concentrations of these steroids can be determined using HTRF assays from CisBio analyzing either Aldosterone or Cortisol.
(§4) Inhibition of the release of produced steroids can be used as a measure of the respective enzyme inhibition by test compounds added during the cellular enzyme assay. The dose dependent inhibition of enzymatic activity by a compound is calculated by means of plotting added inhibitor concentrations (x-axes) vs. measured steroid/product level (y-axes). The inhibition is then calculated by fitting the following 4-parameter sigmoidal function (Morgan-Mercer-Flodin (MMF) model) to the raw data points using the least squares method:
(§5) [formula] wherein, A is the maximum y value, B is the EC50 factor determined using XLFit, C is the minimum y value and D is the slope value.
(§6) EC50 values for compounds claimed herein were tested with the G402-based assay system described. Cyp11B2 enzyme activity was tested in presence of 1 μM Deoxycorticosterone and variable amounts of inhibitors; Cyp11B1 enzyme activity was tested in presence of 1 μM Deoxycortisol and variable amounts of inhibitors.

Test [2] concerns the target human CYP11B2 (Homo sapiens (Human), UniProt P19099). Briefly: G-402 cellular enzyme assay, human CYP11B2 (aldosterone release). The conditions noted are these: G-402 cells, 1 μM Deoxycorticosterone. The class given is cell-based.
Text: as §1, §2, §3, §4, §5, §6

human CYP11B1, sequence (P15538 25-503): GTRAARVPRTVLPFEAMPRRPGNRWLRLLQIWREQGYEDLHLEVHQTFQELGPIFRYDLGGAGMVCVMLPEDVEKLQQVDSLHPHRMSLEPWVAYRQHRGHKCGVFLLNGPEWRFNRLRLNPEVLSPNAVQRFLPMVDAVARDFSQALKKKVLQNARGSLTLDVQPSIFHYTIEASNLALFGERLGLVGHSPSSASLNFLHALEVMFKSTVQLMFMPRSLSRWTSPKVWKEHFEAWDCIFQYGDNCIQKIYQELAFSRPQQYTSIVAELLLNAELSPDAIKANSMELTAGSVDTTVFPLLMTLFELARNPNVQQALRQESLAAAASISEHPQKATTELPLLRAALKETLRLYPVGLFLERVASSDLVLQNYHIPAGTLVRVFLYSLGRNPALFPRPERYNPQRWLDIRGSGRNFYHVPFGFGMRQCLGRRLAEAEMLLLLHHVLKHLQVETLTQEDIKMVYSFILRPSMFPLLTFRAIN
human CYP11B2, sequence (P19099 25-503): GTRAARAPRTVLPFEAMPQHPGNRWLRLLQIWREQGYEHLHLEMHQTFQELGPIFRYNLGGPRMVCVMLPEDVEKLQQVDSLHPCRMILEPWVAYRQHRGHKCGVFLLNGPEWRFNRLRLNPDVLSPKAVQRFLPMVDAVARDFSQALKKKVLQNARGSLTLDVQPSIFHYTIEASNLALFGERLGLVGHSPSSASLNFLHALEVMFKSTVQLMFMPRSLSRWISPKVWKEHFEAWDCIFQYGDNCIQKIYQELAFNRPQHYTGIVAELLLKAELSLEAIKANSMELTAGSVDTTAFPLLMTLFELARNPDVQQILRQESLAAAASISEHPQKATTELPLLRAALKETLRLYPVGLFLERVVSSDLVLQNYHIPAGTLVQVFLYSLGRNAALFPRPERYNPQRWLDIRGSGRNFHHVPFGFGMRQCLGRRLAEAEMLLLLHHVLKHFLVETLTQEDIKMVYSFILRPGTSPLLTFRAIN

For the compound `CCCNC(=O)CC1CCc2c(-c3ccc(C(F)(F)F)c(F)c3)cncc21` (racemic) [Example 4, (rac)-2-[4-[3-Fluoro-4-(trifluoromethyl)phenyl]-6,7-dihydro-5H-cyclopenta[c]pyridin-7-yl]-N-propyl-acetamide], the results for the 50% effective concentration (EC50) in test [1] and in test [2] were 112 nM and 21 nM, respectively.
As to `CC(C)N(C)C(=O)CC1CCc2c(-c3ccc(C(F)(F)F)cc3F)cncc21` (racemic) [Example 15, (rac)-2-[4-[2-Fluoro-4-(trifluoromethyl)phenyl]-6,7-dihydro-5H-cyclopenta[c]pyridin-7-yl]-N-isopropyl-N-methyl-acetamide], the half-maximal effective concentration (EC50) was 1310 nM in test [1] and 18 nM in test [2].
As for `O=C(CC1CCc2c(-c3ccc(C(F)(F)F)c(F)c3)cncc21)N1CCOCC1` (racemic) [Example 9, (rac)-2-[4-[3-Fluoro-4-(trifluoromethyl)phenyl]-6,7-dihydro-5H-cyclopenta[c]pyridin-7-yl]-1-morpholino-ethanone], the EC50 came to 152 nM in test [1] and 20 nM in test [2].
The matching figures for `O=C(CC1CCc2c(-c3ccc(C(F)(F)F)cc3F)cncc21)N1CCCC1` (racemic) [Example 21, (rac)-2-[4-[2-Fluoro-4-(trifluoromethyl)phenyl]-6,7-dihydro-5H-cyclopenta[c]pyridin-7-yl]-1-pyrrolidin-1-yl-ethanone]: 507 nM and 12 nM.
For the compound `O=C(CC1CCc2c(-c3ccc(C(F)(F)F)cc3F)cncc21)N1CCC1` (racemic) [Example 18, (rac)-1-(Azetidin-1-yl)-2-[4-[2-fluoro-4-(trifluoromethyl)phenyl]-6,7-dihydro-5H-cyclopenta[c]pyridin-7-yl]ethanone], the EC50 in test [1] worked out at 2680 nM; in test [2], 48 nM.
In the case of `CN(C)C(=O)CC1CCCc2c(-c3ccc(C(F)(F)F)cc3F)cncc21` (single isomer, unassigned; (-)) [Example 28, (−)-(R or S)-2-[4-[2-fluoro-4-(trifluoromethyl)phenyl]-5,6,7,8-tetrahydroisoquinolin-8-yl]-N,N-dimethyl-acetamide], the half-maximal effective concentration (EC50) in test [1] was determined as 9110 nM; in test [2] it was 133 nM.
In the case of `COCCNC(=O)CC1CCc2c(-c3ccc(C(F)(F)F)c(F)c3)cncc21` (racemic) [Example 7, (rac)-2-[4-[3-Fluoro-4-(trifluoromethyl)phenyl]-6,7-dihydro-5H-cyclopenta[c]pyridin-7-yl]-N-(2-methoxyethyl)acetamide], the figures for the EC50 in test [1] and in test [2] were 582 nM and 32 nM, respectively.
With `CCN(C)C(=O)CC1CCc2c(-c3ccc(C(F)(F)F)cc3F)cncc21` (racemic) [Example 14, (rac)-N-Ethyl-2-[4-[2-fluoro-4-(trifluoromethyl)phenyl]-6,7-dihydro-5H-cyclopenta[c]pyridin-7-yl]-N-methyl-acetamide], the EC50 in test [1] turned out to be 2120 nM; in test [2], 44 nM.
For `CCNC(=O)CC1CCCc2c(-c3ccc(C(F)(F)F)cc3F)cncc21` (racemic) [Example 29, (rac)-N-Ethyl-2-[4-[2-fluoro-4-(trifluoromethyl)phenyl]-5,6,7,8-tetrahydroisoquinolin-8-yl]acetamide], the concentration giving a half-maximal response (EC50) in test [1] turned out to be 4080 nM; in test [2], 212 nM.
As for `C[C@H]1CCCN1C(=O)CC1CCc2c(-c3ccc(C(F)(F)F)cc3F)cncc21` (mixture of isomers) [Example 22, (rac)-2-[4-[2-Fluoro-4-(trifluoromethyl)phenyl]-6,7-dihydro-5H-cyclopenta[c]pyridin-7-yl]-1-[(2S)-2-methylpyrrolidin-1-yl]ethanone], the figures for the EC50 in test [1] and in test [2] were 278 nM and 6 nM, respectively.
Consider `CCNC(=O)CC1CCc2c(-c3ccc(C(F)(F)F)c(F)c3)cncc21` (racemic) [Example 3, (rac)-2-[4-[3-Fluoro-4-(trifluoromethyl)phenyl]-6,7-dihydro-5H-cyclopenta[c]pyridin-7-yl]-N-ethyl-acetamide], for which the values for the 50% effective concentration (EC50) in test [1] and in test [2] were 69 nM and 13 nM, respectively.
`CCN(C(=O)CC1CCc2c(-c3ccc(C(F)(F)F)cc3F)cncc21)C1CC1` (racemic) [Example 17, (rac)-N-Cyclopropyl-N-ethyl-2-[4-[2-fluoro-4-(trifluoromethyl)phenyl]-6,7-dihydro-5H-cyclopenta[c]pyridin-7-yl]acetamide]: the EC50 in test [1] amounted to 745 nM; in test [2], 29 nM.
With `O=C(CC1CCCc2c(-c3ccc(C(F)(F)F)cc3F)cncc21)NC1CC1` (racemic) [Example 30, (rac)-N-Cyclopropyl-2-[4-[2-fluoro-4-(trifluoromethyl)phenyl]-5,6,7,8-tetrahydroisoquinolin-8-yl]acetamide], the figures for the EC50 in test [1] and in test [2] were 448 nM and 37 nM, respectively.
The matching figures for `COCCNC(=O)CC1CCCc2c(-c3ccc(C(F)(F)F)cc3F)cncc21` (racemic) [Example 32, (rac)-2-[4-[2-Fluoro-4-(trifluoromethyl)phenyl]-5,6,7,8-tetrahydroisoquinolin-8-yl]-N-(2-methoxyethyl)acetamide]: 5060 nM and 222 nM.
Turning to `CCOC(=O)CC1CCc2c(-c3ccc(C(F)(F)F)c(F)c3)cncc21` (racemic) [Example 1, (rac)-Ethyl 2-[4-[3-fluoro-4-(trifluoromethyl)phenyl]-6,7-dihydro-5H-cyclopenta[c]pyridin-7-yl]acetate], the half-maximal effective concentration (EC50) in test [1] came to 84 nM; in test [2] it was 9 nM.
On to `CN(C)C(=O)CC1CCCc2c(-c3ccc(C(F)(F)F)cc3F)cncc21` (single isomer, unassigned; (+)) [Example 27, (+)-(R or S)-2-[4-[2-fluoro-4-(trifluoromethyl)phenyl]-5,6,7,8-tetrahydroisoquinolin-8-yl]-N,N-dimethyl-acetamide], for which the EC50 turned out to be 1490 nM in test [1] and 36 nM in test [2].
As for `O=C(CC1CCc2c(-c3ccc(C(F)(F)F)c(F)c3)cncc21)NCC1CC1` (racemic) [Example 6, (rac)-N-(Cyclopropylmethyl)-2-[4-[3-fluoro-4-(trifluoromethyl)phenyl]-6,7-dihydro-5H-cyclopenta[c]pyridin-7-yl]acetamide], the EC50 in test [1] came to 331 nM; in test [2] it was 24 nM.
Take `O=C(CC1CCc2c(-c3ccc(C(F)(F)F)c(F)c3)cncc21)NC1CC1` (racemic) [Example 5, (rac)-N-Cyclopropyl-2-[4-[3-fluoro-4-(trifluoromethyl)phenyl]-6,7-dihydro-5H-cyclopenta[c]pyridin-7-yl]acetamide]: the results for the EC50 in test [1] and in test [2] were 217 nM and 13 nM, respectively.
Consider `CN(C(=O)CC1CCc2c(-c3ccc(C(F)(F)F)cc3F)cncc21)C1CC1` (racemic) [Example 16, (rac)-N-Cyclopropyl-2-[4-[2-fluoro-4-(trifluoromethyl)phenyl]-6,7-dihydro-5H-cyclopenta[c]pyridin-7-yl]-N-methyl-acetamide], for which the half-maximal effective concentration (EC50) in test [1] came out at 211 nM; in test [2], 6 nM.
On to `O=C(CC1CCc2c(-c3ccc(C(F)(F)F)cc3F)cncc21)N1CC(CO)C1` (racemic) [Example 19, (rac)-2-[4-[2-Fluoro-4-(trifluoromethyl)phenyl]-6,7-dihydro-5H-cyclopenta[c]pyridin-7-yl]-1-[3-(hydroxymethyl)azetidin-1-yl]ethanone], for which the concentration for a half-maximal effect (EC50) in test [1] was determined as 1160 nM; in test [2] it was 45 nM.
For `CNC(=O)CC1CCCc2c(-c3ccc(C(F)(F)F)cc3F)cncc21` (racemic) [Example 25, (rac)-2-[4-[2-Fluoro-4-(trifluoromethyl)phenyl]-5,6,7,8-tetrahydroisoquinolin-8-yl]-N-methyl-acetamide], the concentration giving a half-maximal response (EC50) in test [1] was found to be 1040 nM; in test [2], 11 nM.
The matching figures for `O=C(CC1CCc2c(-c3ccc(C(F)(F)F)c(F)c3)cncc21)Nc1ccon1` (racemic) [Example 10, (rac)-2-[4-[3-Fluoro-4-(trifluoromethyl)phenyl]-6,7-dihydro-5H-cyclopenta[c]pyridin-7-yl]-N-isoxazol-3-yl-acetamide]: 180 nM and 17 nM.
